According to patent US10344049B2, “Substituted steroids for the treatment of cancer” (AQUAVAN TECHNOLOGY CO., LTD., priority 2017, dated 2019):
Like-named read-outs stand apart in the source and are kept apart here.

Tests used:
Assay type in all cases: cell-based
[1] = test system: African green monkey kidney cells Vero; assay: Cell viability test (Resazurin), Vero cells
Experimental: (§1) Cell viability was determined with Resazurin (at a final concentration of 25 μg/mL).

[2] = test system: human breast cancer cells MDA-MB-231; assay: Cell viability test (Resazurin), MDA-MB-231 cells; set-up: evaluation of ability to inhibit cell growth activity (IC50): scale not given here
Experimental: as §1

[3] = test system: human Glioblastoma cells U87-MG; assay: Cell viability test (Resazurin), U87-MG cells; set-up: evaluation of ability to inhibit cell growth activity (IC50): scale not given here
Experimental: as §1

[4] = test system: human breast cancer cells MDA-MB-468; assay: Cell viability test (Resazurin), MDA-MB-468 cells
Experimental: as §1

[5] = test system: human liver cancer cells Mahlavu; assay: Cell viability test (Resazurin), Mahlavu cells
Experimental: as §1

[6] = test system: human lung cancer cells A549; assay: Cell viability test (Resazurin), A549 cells
Experimental: as §1

[7] = test system: human colorectal cancer cells SW-480; assay: Cell viability test (Resazurin), SW480 cells; set-up: evaluation of ability to inhibit cell growth activity (IC50): scale not given here
Experimental: as §1

[8] = test system: human leukemia cells U937; assay: Cell viability test (Resazurin), U937 cells
Experimental: as §1

[9] = Chlorocebus sabaeus, Vero, 48 h, 0.1% FCS, Resazurin, read-out: inhibitory concentrations of cell growth activity IC50
[10] = Chlorocebus sabaeus, Vero, grade of the IC50 of Table 2, read-out: evaluation of ability to inhibit cell growth activity (IC50)
[11] = Homo sapiens, MDA-MB-231, 48 h, MDA-MB-231 cells, 48 hours, 0.1% FCS, Resazurin, read-out: inhibitory concentrations of cell growth activity IC50
[12] = Homo sapiens, MDA-MB-231, MDA-MB-231 cells, grade of the IC50 of Table 2, read-out: evaluation of ability to inhibit cell growth activity (IC50)
[13] = Homo sapiens, U-87 MG, 48 h, 0.1% FCS, Resazurin, read-out: inhibitory concentrations of cell growth activity IC50
[14] = Homo sapiens, U-87 MG, grade of the IC50 of Table 2, read-out: evaluation of ability to inhibit cell growth activity (IC50)
[15] = MDA-MB-468 cells, 48 hours, 0.1% FCS, Resazurin, read-out: inhibitory concentrations of cell growth activity IC50
[16] = MDA-MB-468 cells, grade of the IC50 of Table 2, read-out: evaluation of ability to inhibit cell growth activity (IC50)
[17] = Homo sapiens, Mahlavu, 48 h, 0.1% FCS, Resazurin, read-out: inhibitory concentrations of cell growth activity IC50
[18] = Homo sapiens, Mahlavu, grade of the IC50 of Table 2, read-out: evaluation of ability to inhibit cell growth activity (IC50)
[19] = Homo sapiens, A549, 48 h, A549 cells, 48 hours, 0.1% FCS, Resazurin, read-out: inhibitory concentrations of cell growth activity IC50
[20] = Homo sapiens, A549, A549 cells, grade of the IC50 of Table 2, read-out: evaluation of ability to inhibit cell growth activity (IC50)
[21] = Homo sapiens, SW480, 48 h, SW480 cells, 48 hours, 0.1% FCS, Resazurin, read-out: inhibitory concentrations of cell growth activity IC50
[22] = Homo sapiens, SW480, SW480 cells, grade of the IC50 of Table 2, read-out: evaluation of ability to inhibit cell growth activity (IC50)
[23] = Homo sapiens, U-937, U937 cells, grade of the IC50 of Table 2, read-out: evaluation of ability to inhibit cell growth activity (IC50)
[24] = U937 cells, 48 hours, 0.1% FCS, Resazurin, read-out: inhibitory concentrations of cell growth activity IC50
[25] = Homo sapiens, MDA-MB-468, MDA-MB-468 cells, grade of the IC50 of Table 2, read-out: evaluation of ability to inhibit cell growth activity (IC50)
[26] = U937 cells, grade of the IC50 of Table 2, read-out: evaluation of ability to inhibit cell growth activity (IC50)
[27] = 48 hours, 0.1% FCS, Resazurin, read-out: inhibitory concentrations of cell growth activity IC50
[28] = grade of the IC50 of Table 2, read-out: evaluation of ability to inhibit cell growth activity (IC50)
[29] = MDA-MB-231 cells, 48 hours, 0.1% FCS, Resazurin, read-out: inhibitory concentrations of cell growth activity IC50
[30] = MDA-MB-231 cells, grade of the IC50 of Table 2, read-out: evaluation of ability to inhibit cell growth activity (IC50)
[31] = A549 cells, 48 hours, 0.1% FCS, Resazurin, read-out: inhibitory concentrations of cell growth activity IC50
[32] = A549 cells, grade of the IC50 of Table 2, read-out: evaluation of ability to inhibit cell growth activity (IC50)
[33] = SW480 cells, 48 hours, 0.1% FCS, Resazurin, read-out: inhibitory concentrations of cell growth activity IC50
[34] = SW480 cells, grade of the IC50 of Table 2, read-out: evaluation of ability to inhibit cell growth activity (IC50)
[35] = U937 cells, grade of the IC50 of Table 2

SMILES	IC50 [1, 9] [µM]	IC50 [1, 10] [µM]	IC50 [4, 15] [µM]	IC50 [4, 16] [µM]	IC50 [5, 17] [µM]	IC50 [5, 18] [µM]	IC50 [6, 20] [µM]	IC50 [8, 24] [µM]	IC50 [8, 26] [µM]	IC50 [1, 27] [µM]	IC50 [2, 29] [µM]	IC50 [2, 30] [µM]	IC50 [3, 27] [µM]	IC50 [3, 28] [µM]	IC50 [5, 27] [µM]	IC50 [5, 28] [µM]	IC50 [6, 31] [µM]	IC50 [6, 32] [µM]	IC50 [7, 33] [µM]	IC50 [7, 34] [µM]	further results
CO[C@@H]1O[C@]23C=C[C@@H]4[C@@]1(CC[C@]1(C)[C@@H]([C@H](C)C/C=C/C(C)(C)OC)CC[C@@]41C)[C@@H]2CC[C@H](O)C3(C)C [Compound 15]	> 256	> 256	> 256	> 256	> 256	> 256	> 256	4.28	–	–	–	–	–	–	–	–	–	–	–	–	IC50 [2, 11]: > 256 µM; IC50 [2, 12]: > 256 µM; IC50 [3, 13]: > 256 µM; IC50 [3, 14]: > 256 µM; IC50 [6, 19]: > 256 µM; IC50 [7, 21]: > 256 µM; IC50 [7, 22]: > 256 µM; IC50 [8, 23]: < 8 µM
COC1O[C@]23C=C[C@@H]4[C@@]1(CC[C@]1(C)[C@@H]([C@H](C)C[C@H](C=C(C)C)OC)CC[C@@]41C)[C@@H]2CC[C@H](O)C3(C)C (stereo partly drawn) [Compound 16]	> 256	> 256	–	–	> 256	> 256	> 256	97.9	64 to 256	–	–	–	–	–	–	–	–	–	–	–	IC50 [2, 11]: > 256 µM; IC50 [2, 12]: > 256 µM; IC50 [3, 13]: > 256 µM; IC50 [3, 14]: > 256 µM; IC50 ([4]; Homo sapiens, MDA-MB-468, 48 h, MDA-MB-468 cells, 48 hours, 0.1% FCS, Resazurin, read-out: inhibitory concentrations of cell growth activity IC50): > 256 µM; IC50 [4, 25]: > 256 µM; IC50 [6, 19]: > 256 µM; IC50 [7, 21]: > 256 µM; IC50 [7, 22]: > 256 µM
COC1O[C@]23C=C[C@@H]4[C@@]1(CC[C@]1(C)[C@@H]([C@H](C)C/C=C/C(C)(C)OC)CC[C@@]41C)[C@@H]2CC[C@H](O)C3(C)C (stereo partly drawn) [Compound 17]	–	–	9.4	–	–	–	–	12.2	–	> 256	> 256	> 256	> 256	> 256	> 256	> 256	> 256	> 256	> 256	> 256	IC50 [1, 28]: > 256 µM; evaluation of ability to inhibit cell growth activity (IC50) ([4]; MDA-MB-468 cells, grade of the IC50 of Table 2): ◯; evaluation of ability to inhibit cell growth activity (IC50) [8, 35]: ◯
CO[C@H]1O[C@]23C=C[C@@H]4[C@@]1(CC[C@]1(C)[C@@H]([C@H](C)C[C@H](C=C(C)C)OC)CC[C@@]41C)[C@@H]2CC[C@H](O)C3(C)C [Compound 18]	–	–	> 256	> 256	–	–	–	> 256	> 256	> 256	> 256	> 256	> 256	> 256	> 256	> 256	> 256	> 256	> 256	> 256	IC50 [1, 28]: > 256 µM
COC1O[C@]23C=C[C@@H]4[C@@]1(CC[C@]1(C)[C@@H]([C@H](C)C/C=C/C(C)(C)O)CC[C@@]41C)[C@@H]2CC[C@H](O)C3(C)C (stereo partly drawn) [Compound 19]	–	16 to 64	24.4	16 to 64	20.7	16 to 64	16 to 64	11.9	–	36.1	22.6	16 to 64	25	16 to 64	–	–	45.6	–	–	16 to 64	IC50 [7, 21]: 16.6 µM; IC50 [8, 23]: 8 to 16 µM; evaluation of ability to inhibit cell growth activity (IC50) [8, 35]: ◯
CO[C@H]1O[C@]23C=C[C@@H]4[C@@]1(CC[C@]1(C)[C@@H]([C@H](C)C/C=C/C(C)(C)O)CC[C@@]41C)[C@@H]2CC[C@H](O)C3(C)C [Compound 20]	–	–	6.9	–	–	–	–	4.33	< 8	12.5	10.4	–	12.2	–	19.7	16 to 64	20.1	16 to 64	12.6	–	evaluation of ability to inhibit cell growth activity (IC50) ([1]; grade of the IC50 of Table 2): ◯; IC50 [2, 12]: 8 to 16 µM; evaluation of ability to inhibit cell growth activity (IC50) ([2]; MDA-MB-231 cells, grade of the IC50 of Table 2): ◯; IC50 [3, 14]: 8 to 16 µM; evaluation of ability to inhibit cell growth activity (IC50) ([3]; grade of the IC50 of Table 2): ◯; IC50 [4, 25]: < 8 µM; IC50 [7, 22]: 8 to 16 µM; evaluation of ability to inhibit cell growth activity (IC50) ([7]; SW480 cells, grade of the IC50 of Table 2): ◯
COC1O[C@]23C=C[C@@H]4[C@@]1(CC[C@]1(C)[C@@H]([C@H](C)C[C@@H](O)C=C(C)C)CC[C@@]41C)[C@@H]2CC[C@H](O)C3(C)C (stereo partly drawn) [Compound 21]	> 256	> 256	35.4	16 to 64	> 256	> 256	> 256	–	–	–	–	64 to 256	83.5	64 to 256	–	–	–	–	118	64 to 256	IC50 [2, 11]: 130 µM; IC50 [6, 19]: > 256 µM; IC50 ([8]; Homo sapiens, U-937, 48 h, U937 cells, 48 hours, 0.1% FCS, Resazurin, read-out: inhibitory concentrations of cell growth activity IC50): 6.19 µM; IC50 [8, 23]: < 8 µM
CO[C@@H]1O[C@]23C=C[C@@H]4[C@@]1(CC[C@]1(C)[C@@H]([C@H](C)C[C@@H](O)C=C(C)C)CC[C@@]41C)[C@@H]2CC[C@H](O)C3(C)C [Compound 22]	–	–	> 256	> 256	–	–	–	6.17	< 8	> 256	> 256	> 256	> 256	> 256	> 256	> 256	> 256	> 256	> 256	> 256	IC50 [1, 28]: > 256 µM
